Assay results as given in patent publication US10770169B2, “Method of providing a treatment to a subject based on a dynamic pathway map” (THE REGENTS OF THE UNIVERSITY OF CALIFORNIA, priority 2010, dated 2020).
Like-named read-outs stand apart in the source and are kept apart here.

What was measured:
[1] = tested on: panel of 55 breast cancer cell lines; assay: Cell growth inhibition assay (Cell Titer Glo, 72 h, 9 doses; GI50, TGI, LC50); format: cell-based, human; conditions: Homo sapiens, read-out: GI50 (converted)
[2] = tested on: breast cancer cell lines with aberrant vs normal copy number; assay: Association of recurrent copy number changes and response (t-test on GI50); format: cell-based, human; conditions: FDR p<0.2
Excerpt: We used a t-test to assess the association between recurrent copy number changes (at 8q24 (MYC), 11q13 (CCND1), 20q13 (STK15/AURKA)) and drug sensitivity. We combined into a single group cell lines with low or no amplification and compared them to cell lines with high amplification. […] Cell lines for which the GI50 was equal to the maximum concentration tested were omitted from analysis. We omitted compounds where any group had fewer than five samples.

`CCC1=C[C@@H]2CN(C1)Cc1c([nH]c3ccccc13)[C@@](C(=O)OC)(c1cc3c(cc1OC)N(C)[C@H]1[C@@](O)(C(=O)OC)[C@H](OC(C)=O)[C@]4(CC)C=CCN5CC[C@]31[C@@H]54)C2` [Vinorelbine] gave a GI50 ([1]; 600MPE cell line, censored GI50 values) of 5130 nM, a GI50 ([1]; AU565, AU565 cell line, censored GI50 values) of 8.71 nM and a GI50 ([1]; AU565, cell line AU565) of 8.71 nM. The GI50 ([1]; BT-474, BT474 cell line, censored GI50 values) was 47.9 nM, the GI50 ([1]; BT-474, cell line BT474) was 47.9 nM and the GI50 ([1]; BT-483, BT483 cell line, censored GI50 values) was 7.24 nM. For the same compound, the GI50 ([1]; BT-483, cell line BT483) was 7.24 nM, the GI50 ([1]; BT-549, BT549 cell line, censored GI50 values) was 9.55 nM and the GI50 ([1]; BT-549, cell line BT549) was 9.55 nM. It also gave a GI50 ([1]; CAMA-1, CAMA1 cell line, censored GI50 values) of 13.2 nM, a GI50 ([1]; CAMA-1, cell line CAMA1) of 13.2 nM and a GI50 ([1]; HCC38, HCC38 cell line, censored GI50 values) of 11.5 nM. For the same compound, the GI50 ([1]; HCC38, cell line HCC38) was 11.5 nM, the GI50 ([1]; HCC70, HCC70 cell line, censored GI50 values) was 7.41 nM and the GI50 ([1]; HCC70, cell line HCC70) was 7.41 nM. It also gave a GI50 ([1]; HCC202, HCC202 cell line, censored GI50 values) of 13.5 nM, a GI50 ([1]; HCC202, cell line HCC202) of 13.5 nM and a GI50 ([1]; HCC1143, HCC1143 cell line, censored GI50 values) of 263 nM. It also gave a GI50 ([1]; HCC1143, cell line HCC1143) of 263 nM, a GI50 ([1]; HCC1187, HCC1187 cell line, censored GI50 values) of 26.9 nM and a GI50 ([1]; HCC1187, cell line HCC1187) of 26.9 nM. For the same compound, the GI50 ([1]; HCC1395, HCC1395 cell line, censored GI50 values) was 3.55 nM, the GI50 ([1]; HCC1395, cell line HCC1395) was 3.55 nM and the GI50 ([1]; HCC1419, HCC1419 cell line, censored GI50 values) was 355 nM. For the same compound, the GI50 ([1]; HCC1419, cell line HCC1419) was 355 nM, the GI50 ([1]; HCC1428, HCC1428 cell line, censored GI50 values) was 2190 nM and the GI50 ([1]; HCC1428, cell line HCC1428) was 2190 nM. It also gave a GI50 ([1]; HCC1500, HCC1500 cell line, censored GI50 values) of 11 nM, a GI50 ([1]; HCC1500, cell line HCC1500) of 11 nM and a GI50 ([1]; HCC1806, HCC1806 cell line, censored GI50 values) of 11.7 nM. The GI50 ([1]; HCC1806, cell line HCC1806) was 11.7 nM, the GI50 ([1]; HCC1937, HCC1937 cell line, censored GI50 values) was 224 nM and the GI50 ([1]; HCC1937, cell line HCC1937) was 224 nM. It also gave a GI50 ([1]; HCC1954, HCC1954 cell line, censored GI50 values) of 3.55 nM, a GI50 ([1]; HCC1954, cell line HCC1954) of 3.55 nM and a GI50 ([1]; HCC2185 cell line, censored GI50 values) of 26300 nM. For the same compound, the GI50 ([1]; HCC3153 cell line, censored GI50 values) was 51.3 nM, the GI50 ([1]; LY2 cell line, censored GI50 values) was 13.2 nM and the GI50 ([1]; MCF7, MCF7 cell line, censored GI50 values) was 16.6 nM. The GI50 ([1]; MCF7, cell line MCF7) was 16.6 nM, the GI50 ([1]; MDA-MB-134-VI, MDAMB134VI cell line, censored GI50 values) was 13.5 nM and the GI50 ([1]; MDA-MB-157, MDAMB157 cell line, censored GI50 values) was 12.9 nM. For the same compound, the GI50 ([1]; MDA-MB-157, cell line MDAMB157) was 12.9 nM, the GI50 ([1]; MDA-MB-175-VII, MDAMB175VII cell line, censored GI50 values) was 38.9 nM and the GI50 ([1]; MDA-MB-231, MDAMB231 cell line, censored GI50 values) was 5.13 nM. For the same compound, the GI50 ([1]; MDA-MB-231, cell line MDAMB231) was 5.13 nM, the GI50 ([1]; MDA-MB-361, MDAMB361 cell line, censored GI50 values) was 6.61 nM and the GI50 ([1]; MDA-MB-361, cell line MDAMB361) was 6.61 nM. The GI50 ([1]; MDA-MB-415, MDAMB415 cell line, censored GI50 values) was 18.2 nM, the GI50 ([1]; MDA-MB-415, cell line MDAMB415) was 18.2 nM and the GI50 ([1]; MDA-MB-436, MDAMB436 cell line, censored GI50 values) was 26.9 nM. The GI50 ([1]; MDA-MB-436, cell line MDAMB436) was 26.9 nM, the GI50 ([1]; MDA-MB-453, MDAMB453 cell line, censored GI50 values) was 3.8 nM and the GI50 ([1]; MDA-MB-453, cell line MDAMB453) was 3.8 nM. For the same compound, the GI50 ([1]; MDA-MB-468, MDAMB468 cell line, censored GI50 values) was 10.7 nM, the GI50 ([1]; MDA-MB-468, cell line MDAMB468) was 10.7 nM and the GI50 ([1]; SK-BR-3, SKBR3 cell line, censored GI50 values) was 17.4 nM. The GI50 ([1]; SK-BR-3, cell line SKBR3) was 17.4 nM, the GI50 ([1]; SUM52PE, SUM52PE cell line, censored GI50 values) was 5.37 nM and the GI50 ([1]; SUM52PE, cell line SUM52PE) was 5.37 nM. The GI50 ([1]; SUM149PT, SUM149PT cell line, censored GI50 values) was 12.3 nM, the GI50 ([1]; SUM149PT, cell line SUM149PT) was 12.3 nM and the GI50 ([1]; SUM185PE, SUM185PE cell line, censored GI50 values) was 8.32 nM. It also gave a GI50 ([1]; SUM185PE, cell line SUM185PE) of 8.32 nM, a GI50 ([1]; SUM1315MO2, SUM1315MO2 cell line, censored GI50 values) of 2.24 nM and a GI50 ([1]; SUM-159-PT, SUM159PT cell line, censored GI50 values) of 12.3 nM. It also gave a GI50 ([1]; SUM-159-PT, cell line SUM159PT) of 12.3 nM, a GI50 ([1]; T47D, T47D cell line, censored GI50 values) of 4680 nM and a GI50 ([1]; T47D, cell line T47D) of 4680 nM. The GI50 ([1]; UACC-812, UACC812 cell line, censored GI50 values) was 74.1 nM, the GI50 ([1]; UACC-812, cell line UACC812) was 74.1 nM and the GI50 ([1]; UACC-893, UACC893 cell line, censored GI50 values) was 11 nM. The GI50 ([1]; UACC-893, cell line UACC893) was 11 nM, the GI50 ([1]; ZR-75-1, ZR751 cell line, censored GI50 values) was 44.7 nM and the GI50 ([1]; ZR-75-1, cell line ZR751) was 44.7 nM. For the same compound, the GI50 ([1]; ZR-75B, ZR75B cell line, censored GI50 values) was 8.91 nM, the GI50 ([1]; ZR-75B, cell line ZR75B) was 8.91 nM and the GI50 ([1]; cell line 600MPE) was 5130 nM. For the same compound, the GI50 ([1]; cell line HCC2185) was 26300 nM, the GI50 ([1]; cell line HCC3153) was 51.3 nM and the GI50 ([1]; cell line LY2) was 13.2 nM. For the same compound, the GI50 ([1]; cell line MDAMB134V) was 13.5 nM, the GI50 ([1]; cell line MDAMB175V) was 38.9 nM and the GI50 ([1]; cell line SUM1315MO) was 2.24 nM. For the same compound, the “association of response with homozygous deletion at 9p21 (CDKN2A)” value [2] was “associated with response”.
